Experimental data taken from patent publication US12157730B2, “Heteroaryl derivative, method for producing same, and pharmaceutical composition comprising same as effective component” (VORONOI INC., priority 2019, dated 2024).

Molecular target: T1, Ba/F3 cell EGFR Exon20 ins NPH (Homo sapiens, UniProt P00533, INS773NPH)
T1 construct: expressed in transfected cells; host or cells: Ba/F3
Test: Ba/F3 cell proliferation suppression, EGFR Exon20 ins NPH
Assay type: cell-based
Settings: GI50 class; Ba/F3 cell line with NPH inserted at Exon20 of EGFR; 72 hours
Method in brief: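 72 h compound exposure, 0.3 nM–50 um (12 points, 3:1 dilution in DMSO); viability by CellTiter-Glo luminescence. Ba/F3 medium: RPMI-1640, 10% FBS, 5 ng/ml IL-3, 1 ug/ml puromycin for transduced cells. GI50 vs control, n=3.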

SMILES	Ba/F3 (NPH) Activity
C=CC(=O)Nc1cc(Nc2cc(N3OCC[C@@H]3c3ccc(C)nc3)ncn2)c(OC)cc1N1CCC(N2C[C@H]3C[C@@H]2CO3)CC1 [Example 227, N-(2-(4-((1R,4R)-2-oxa-5-azabicyclo[2.2.1]heptane-5-yl)piperidine-1-yl)-4-methoxy-5-((6-((R)-3-(6-methylpyridine-3-yl)isoxazolidine-2-yl)pyrimidine-4-yl)amino)phenyl)acrylamide]	B (50 nM ≤ GI50 < 500 nM)
C=CC(=O)Nc1cc(Nc2cc(N3OCC[C@@H]3c3ccc(F)c(Cl)c3F)ncn2)c(OC)cc1N1CCC(N2C[C@H]3C[C@@H]2CO3)CC1 [compound 635, N-(2-(4-((1R,4R)-2-oxa-5-azabicyclo[2.2.1]heptane-5-yl)piperidine-1-yl)-5-((6-((R)-3-(3-chloro-2,4-difluorophenyl)isoxazolidine-2-yl)pyrimidine-4-yl)amino)-4-methoxyphenyl) acrylamide]	A (GI50 < 50 nM)
C=CC(=O)Nc1cc(Nc2cc(N3OCC[C@@H]3Cc3cccc(N(C)C)c3)ncn2)c(OC)cc1N1CCC(N2CCN(C3CC3)[C@H](C)C2)CC1 [compound 1046, N-(2-(4-((R)-4-cyclopropyl-3-methylpiperazine-1-yl)piperidine-1-yl)-5-((6-((S)-3-(3-(dimethylamino)benzyl)isoxazolidine-2-yl)pyrimidine-4-yl)amino)-4-methoxyphenyl) acrylamide]	B (50 nM ≤ GI50 < 500 nM)
C=CC(=O)Nc1cc(Nc2cc(N3OCC[C@@H]3c3cccs3)ncn2)c(OC)cc1N1CCC(N2CCN(C3CC3)CC2)CC1 [Example 147, N-(2-(4-(4-cyclopropylpiperazine-1-yl)piperidine-1-yl)-4-methoxy-5-((6-((R)-3-(thiophene-2-yl)isoxazolidine-2-yl)pyrimidine-4-yl)amino)phenyl)acrylamide]	A (GI50 < 50 nM)
C=CC(=O)Nc1cc(Nc2cc(N3OCC[C@@H]3c3cccc(C#N)c3)ncn2)c(OC)cc1N1CCC(N2CCOCC2)CC1 [compound 400, N-(5-((6-((R)-3-(3-cyanophenyl)isoxazolidine-2-yl)pyrimidine-4-yl)amino)-4-methoxy-2-(4-morpholinopiperidine-1-yl)phenyl)acrylamide]	A (GI50 < 50 nM)
C=CC(=O)Nc1cc(Nc2cc(N3OCC[C@@H]3c3ccc(F)cc3F)ncn2)c(OC)cc1N1CCC(N2CCN(CCN(C)C)CC2)CC1 [compound 431, N-(5-((6-((R)-3-(2,4-difluorophenyl)isoxazolidine-2-yl)pyrimidine-4-yl)amino)-2-(4-(4-(2-(dimethylamino)ethyl)piperazine-1-yl)piperidine-1-yl)-4-methoxyphenyl) acrylamide]	A (GI50 < 50 nM)
C=CC(=O)Nc1cc(Nc2cc(N3OCC[C@@H]3c3ccc(Cl)c(Cl)c3)ncn2)c(OC)cc1N1CCN(C)CC1 [compound 670, N-(5-((6-((R)-3-(3,4-dichlorophenyl)isoxazolidine-2-yl)pyrimidine-4-yl)amino)-4-methoxy-2-(4-methylpiperazine-1-yl)phenyl)acrylamide]	A (GI50 < 50 nM)
C=CC(=O)Nc1cc(Nc2cc(N3OCC[C@@H]3c3cc(F)ccc3F)ncn2)c(OC)cc1-n1ccnc1C [compound 330, N-(5-((6-((R)-3-(2,5-difluorophenyl)isoxazolidine-2-yl)pyrimidine-4-yl)amino)-4-methoxy-2-(2-methyl-1H-imidazole-1-yl)phenyl)acrylamide]	A (GI50 < 50 nM)
C=CC(=O)Nc1cc(Nc2cc(N3OCC[C@@H]3c3cccc(Cl)c3Cl)ncn2)c(OC)cc1N1CCN(C(C)=O)CC1 [compound 519, N-(2-(4-acetylpiperazine-1-yl)-5-((6-((R)-3-(2,3-dichlorophenyl)isoxazolidine-2-yl)pyrimidine-4-yl)amino)-4-methoxyphenyl) acrylamide]	A (GI50 < 50 nM)
C=CC(=O)Nc1cc(Nc2cc(N3OCC[C@@H]3c3ccc(F)cc3F)ncn2)c(OC)cc1N1CCC(N2CCN(C3CCCC3)CC2)CC1 [Example 205, N-(2-(4-(4-cyclopentylpiperazine-1-yl)piperidine-1-yl)-5-((6-((R)-3-(2,4-difluorophenyl)isoxazolidine-2-yl)pyrimidine-4-yl)amino)-4-methoxyphenyl) acrylamide]	A (GI50 < 50 nM)
C=CC(=O)Nc1cc(Nc2cc(N3OCC[C@@H]3c3cc(F)cc(Cl)c3)ncn2)c(OC)cc1N1CCC(N2CCN(C3CC3)C[C@@H]2C)CC1 [Example 160, N-(5-((6-((R)-3-(3-chloro-5-fluorophenyl)isoxazolidine-2-yl)pyrimidine-4-yl)amino)-2-(4-((S)-4-cyclopropyl-2-methylpiperazine-1-yl)piperidine-1-yl)-4-methoxyphenyl) acrylamide]	A (GI50 < 50 nM)
C=CC(=O)Nc1cc(Nc2cc(N3OCC[C@@H]3Cc3ccccc3)ncn2)c(OC)cc1N1CCN(C(C)=O)CC1 [compound 948, N-(2-(4-acetylpiperazine-1-yl)-5-((6-((S)-3-benzylisoxazolidine-2-yl)pyrimidine-4-yl)amino)-4-methoxyphenyl) acrylamide]	A (GI50 < 50 nM)
COc1cc(OCCC(C)(C)OC)c(NC(=O)/C=C/CN(C)C)cc1Nc1cc(N2OCC[C@@H]2c2cc(F)cc(F)c2)ncn1 [compound 496, N-(5-((6-((R)-3-(3,5-difluorophenyl)isoxazolidine-2-yl)pyrimidine-4-yl)amino)-4-methoxy-2-(3-methoxy-3-methylbutoxy)phenyl)-(E)-4-(dimethylamino) but-2-enamide]	C (500 nM ≤ GI50 < 5000 nM)
C=CC(=O)Nc1cc(Nc2cc(N3OCC[C@@H]3c3ccccc3)ncn2)c(OC)cc1N1CCC(N(C)CCN(C)C)CC1 [compound 735, N-(2-(4-((2-(dimethylamino)ethyl) (methyl)amino)piperidine-1-yl)-4-methoxy-5-((6-((R)-3-phenylisoxazolidine-2-yl)pyrimidine-4-yl)amino)phenyl) acrylamide]	A (GI50 < 50 nM)
C=CC(=O)Nc1cc(Nc2cc(N3OCC[C@@H]3c3ccc(Cl)c(F)c3)ncn2)c(OC)cc1N1CCC(N2CCN(C3COC3)CC2)CC1 [Example 83, N-(5-((6-((R)-3-(4-chloro-3-fluorophenyl)isoxazolidine-2-yl)pyrimidine-4-yl)amino)-4-methoxy-2-(4-(4-(oxetane-3-yl)piperazine-1-yl)piperidine-1-yl)phenyl)acrylamide]	A (GI50 < 50 nM)
C=CC(=O)Nc1cc(Nc2cc(N3OCC[C@@H]3c3cccc(F)c3F)ncn2)c(OC)cc1N1CCC(N(C)C)CC1 [compound 926, N-(5-((6-((R)-3-(2,3-difluorophenyl)isoxazolidine-2-yl)pyrimidine-4-yl)amino)-2-(4-(dimethylamino)piperidine-1-yl)-4-methoxyphenyl) acrylamide]	A (GI50 < 50 nM)
C#Cc1cccc([C@H]2CCON2c2cc(Nc3cc(NC(=O)C=C)c(N4CCC(N5CCN(CC=C)CC5)CC4)cc3OC)ncn2)c1 [Example 216, N-(2-(4-(4-allylpiperazine-1-yl)piperidine-1-yl)-5-((6-((R)-3-(3-ethynylphenyl)isoxazolidine-2-yl)pyrimidine-4-yl)amino)-4-methoxyphenyl) acrylamide]	A (GI50 < 50 nM)
C=CC(=O)Nc1cc(Nc2cc(N3OCC[C@@H]3c3ccc(Cl)c(Cl)c3F)ncn2)c(OC)cc1N1CC[C@@H](N2CCOCC2)C1 [Example 294, N-(5-((6-((R)-3-(3,4-dichloro-2-fluorophenyl)isoxazolidine-2-yl)pyrimidine-4-yl)amino)-4-methoxy-2-((R)-3-morpholinopyrolidine-1-yl)phenyl)acrylamide]	B (50 nM ≤ GI50 < 500 nM)
C=CC(=O)Nc1cc(Nc2cc(N3OCC[C@@H]3c3ccc(F)c(F)c3F)ncn2)c(OC)cc1N1CCC(N2CCN(C3CCC3)CC2)CC1 [Example 187, N-(2-(4-(4-cyclobutylpiperazine-1-yl)piperidine-1-yl)-4-methoxy-5-((6-((R)-3-(2,3,4-trifluorophenyl)isoxazolidine-2-yl)pyrimidine-4-yl)amino)phenyl)acrylamide]	A (GI50 < 50 nM)
C=CC(=O)Nc1cc(Nc2cc(N3OCC[C@@H]3c3cccc(F)c3)ncn2)c(OC)cc1N1CCC(N2C[C@@H]3C[C@H]2CO3)CC1 [Example 244, N-(2-(4-((1S,4S)-2-oxa-5-azabicyclo[2.2.1]heptane-5-yl)piperidine-1-yl)-5-((6-((R)-3-(3-fluorophenyl)isoxazolidine-2-yl)pyrimidine-4-yl)amino)-4-methoxyphenyl) acrylamide]	A (GI50 < 50 nM)
C=CC(=O)Nc1cc(Nc2cc(N3OCC[C@@H]3c3cccc(F)c3)ncn2)c(OC)cc1N1C[C@@H]2C[C@H]1CO2 [compound 832, N-(2-((1S,4S)-2-oxa-5-azabicyclo[2.2.1]heptane-5-yl)-5-((6-((R)-3-(3-fluorophenyl)isoxazolidine-2-yl)pyrimidine-4-yl)amino)-4-methoxyphenyl) acrylamide]	A (GI50 < 50 nM)
C=CC(=O)Nc1cc(Nc2cc(N3OCC[C@@H]3c3ccc(F)c(Cl)c3)ncn2)c(OC)cc1N1CC[C@H](N(C)C)C1 [compound 906, N-(5-((6-((R)-3-(3-chloro-4-fluorophenyl)isoxazolidine-2-yl)pyrimidine-4-yl)amino)-2-((S)-3-(dimethylamino)pyrolidine-1-yl)-4-methoxyphenyl) acrylamide]	A (GI50 < 50 nM)
C=CC(=O)Nc1cc(Nc2cc(N3OCC[C@@H]3c3cccc4ccccc34)ncn2)c(OC)cc1N1CCC(N2CCO[C@@H](C)C2)CC1 [compound 535, N-(4-methoxy-2-(4-((S)-2-methylmorpholino)piperidine-1-yl)-5-((6-((R)-3-(naphthalene-1-yl)isoxazolidine-2-yl)pyrimidine-4-yl)amino)phenyl)acrylamide]	A (GI50 < 50 nM)
